{
  "source": "paper PMC4336141",
  "about": "“Repurposing Auranofin as a Lead Candidate for Treatment of Lymphatic Filariasis and Onchocerciasis” (PLoS Neglected Tropical Diseases, 2015)",
  "key": {"[1]": {"test_system": "adult B. pahangi", "test": "Adult Brugia pahangi worm motility assay (Worminator) in vitro", "format": "cell-based", "conditions": "for pIC50: B. pahangi, Adult, Day 3, motility", "method": "Adult female and male Brugia (B. malayi and B. pahangi) were shipped from TRS Labs Inc., Athens, GA and assayed using methods described by Marcellino et al. (2012). Individual females were placed in each well of a 24-well plate with media (RPMI-1640 with 25 mM HEPES, 2.0 g/L NaHCO3, 5% heat inactivated FBS, and 1X Antibiotic/Antimycotic solution). Excess media was removed from plates using a Biomek FxP, leaving 500 μL of media per well. Initial screening of a library of FDA-approved compounds, compiled by the Small Molecule Discovery Center at the University of California San Francisco, was conducted at 10 μM per compound, and 1% DMSO was used as a negative control. All drugs including auranofin (Enzo Life Sciences, Farmingdale, NY) were dissolved in DMSO (Sigma-Aldrich, St. Louis, MO) and 10 mM stock solutions were stored at -20°C. Four worms were used as replicates for each concentration and worm plates were kept in a 37°C, 5% CO2 incubator for four days.\nTo determine the effect of a compound on worm motility, individual worm movements were counted as the number of pixels displaced per second by each worm in each well using the Worminator. Each plate of worms was video recorded for approximately 60 seconds, and mean movement units (MMUs) were determined for individual worms. Percent inhibition of motility was calculated by dividing the MMUs of the treated worms by the control average MMUs, subtracting the value from 1.0, flooring the values to zero and multiplying by 100%. Videos were recorded for 4 days, including the first day of the assay (Day 0). IC50 determinations were conducted at 10 μM, 3 μM, 1 μM, 0.3 μM, 0.1 μM and 0.03 μM, with 1% DMSO used as a control. IC50 assays were repeated at the same concentrations and at six point, three-fold dilutions from 1 μM to 0.003 μM or 3 μM to […] to ensure that activity was consistent between assays. Prism 4.0 was used to calculate IC50 values using a non-linear regression curve fit. The means of all IC50s with R^2 values greater than or equal to 0.7 are reported."}, "[2]": {"test_system": "O. volvulus L3", "test": "Onchocerca volvulus L3 molting inhibition in vitro", "format": "cell-based", "conditions": "O. volvulus L3, Day 6, inhibition of molting", "method": "L3 stage larvae previously collected and cryopreserved in Cameroon were rapidly thawed in a 37°C water bath and washed in incomplete media comprised of a 1:1 ratio of Medium NCTC-109 and IMDM + GlutaMax-I containing 1X glutamine, penicillin, and streptomycin (all from Gibco by Life Technologies, Grand Island, NY). The number of worms was adjusted to about 10 worms per 50 μL in complete medium containing 20% heat inactivated FCS. Worms were distributed into the wells of a 96-well plate containing 50 μL of 1.5 × 10^5 normal human PBMCs. 100 μL of 2X auranofin (final concentrations of 30 μM, 10 μM, 3 μM, 1 μM and 0.3 μM) were added to each well for a final volume of 200 μL. Each concentration was tested in triplicate. Controls included 0.05% DMSO in complete medium and complete medium only with neither DMSO nor compound added. The 96-well plates were then incubated at 37°C in a 5% CO2 incubator for 6 days, then molting was assessed using an inverted microscope. Molting was determined in each well by counting the presence of fourth-stage larvae (L4) and empty casts of the L3. The percent inhibition of molting was calculated based on the number of treated larvae that were able to molt in comparison to the number of control larvae that had successfully molted. Prism 4.0 for Windows was used to calculate IC50s."}, "[3]": {"test_system": "O. ochengi microfilariae", "test": "Onchocerca ochengi microfilariae motility in vitro", "format": "cell-based", "conditions": "Day 5", "method": "O. ochengi microfilariae were obtained from the umbilical skin of infected cattle and cultured on confluent monkey kidney epithelial cells for drug testing as previously described.\nMicrofilariae (10–15 per well) were cultured in 96-well culture plates in duplicate under the same conditions and drug concentrations as were used for the adult O. ochengi, except that 10 μg/mL ivermectin was used as a positive control. Microfilariae viability was visually scored based on motility reduction using the same scale described above for adult male O. ochengi. Scores were recorded every 24 hours after the addition of drugs for 5 days using an inverted microscope."}, "[4]": {"test_system": "B. pahangi", "test": "Worm retrieval from B. pahangi infected gerbils treated orally", "format": "in vivo, Mongolian gerbils (Meriones unguiculatus)", "conditions": "for reduction in worm burden: 48 doses over 28 days, vs vehicle", "method": "Animal studies were performed under IACUC approval #AN085723–02 to test the efficacy of auranofin in vivo. Male Mongolian gerbils (Meriones unguiculatus, Charles River Laboratories International, Inc., Wilmington, MA) were injected intraperitoneally (IP) with 300 B. pahangi L3 (Filariatech, Inc., Athens, GA) and treated 3 months post-infection. Auranofin was dissolved in 100% ethanol at 4 mg/mL and mixed 1:1 with PBS. Vehicle doses consisted of the same mixture of ethanol and PBS but without auranofin. Doses (up to 200 μl) were given to gerbils orally at 5 mg/kg body weight, BID weekdays and SID weekends for a total of 48 doses over 4 weeks.\nTwo studies (Study 1 and Study 2) were conducted using the same protocols and the same dosing schedule except that in Study 1, two gerbils from the auranofin treatment group and two gerbils from the vehicle group were treated for 14 days and were necropsied 2 hours after their last dose (interim necropsy) to determine plasma gold levels (from auranofin). The remaining gerbils in Study 1 were treated for 28 days and were necropsied 11, 14, or 16 days after the end of dosing. In Study 2, all gerbils were treated for 28 days and were necropsied 16 days after the end of dosing. For both of these in vivo studies, worms were collected from the gerbil’s peritoneal cavity, counted, sexed and examined under a dissecting microscope. For each study a two-tailed Student’s T-test assuming equal variance was conducted using Microsoft Excel to determine the statistical significance of the difference in mean worm retrieval between the auranofin treated and vehicle treated groups. Gerbil blood was collected by cardiac puncture and plasma was sent to NMS Labs, Willow Grove, PA to determine plasma gold levels (elemental gold analysis) by graphite furnace atomic absorption spectroscopy."}, "[5]": {"biological_target": "glutathione reductase", "parameters": "method as in PMID 9685351", "conditions": "higher IC50; cited from earlier work"}, "[6]": {"parameters": "method as in PMID 6417628", "conditions": "patients with rheumatoid arthritis treated for an average of 6 months; cited from earlier work"}, "[7]": {"conditions": "Study 1 interim necropsy, 14 days of treatment"}},
  "note": "pIC50: −log10 of the molar value.",
  "data": [
    {"smiles": "CC[PH](CC)(CC)[Au][S][C@@H]1O[C@H](COC(C)=O)[C@@H](OC(C)=O)[C@H](OC(C)=O)[C@H]1OC(C)=O", "note": "[auranofin, 2,3,4,6-tetra-O-acetyl-1-thio-beta-D-glucopyranosato-S (triethylphosphine) gold]", "values": [
      {"measurement": "pIC50", "setting": "[1]; Female", "value": 6.30},
      {"measurement": "pIC50", "setting": "[1]; Male", "value": 7.00},
      {"measurement": "inhibition of motility", "setting": "[1]; female B. pahangi, 3 μM, within 18 hours of incubation", "value": 97, "unit": "%"},
      {"measurement": "pIC50", "setting": "[2]", "value": 6.52},
      {"measurement": "pIC50", "setting": "[3]", "value": 5.52},
      {"measurement": "reduction in worm burden", "setting": "[4]; Study 1, 5 mg/kg oral, not statistically significant (p > 0.05)", "value": 58, "unit": "%"},
      {"measurement": "average number of worms", "setting": "[4]; Study 1, all treated animals (n = 9), vehicle 9.4", "value": 4.0, "unit": "worms"},
      {"measurement": "female worms", "setting": "[4]; [7]", "value": 7},
      {"measurement": "male worms", "setting": "[4]; [7]", "value": 4},
      {"measurement": "total number of worms", "setting": "[4]; Study 1 interim necropsy, 14 days of treatment, two gerbils, vehicle 43", "value": 11},
      {"measurement": "male worms recovered", "setting": "[4]; Study 2", "value": 11},
      {"measurement": "reduction in worm burden", "setting": "[4]; Study 2, 5 mg/kg oral, necropsy 16 days after end of dosing, p = 0.01", "value": 91, "unit": "%"},
      {"measurement": "female worms recovered", "setting": "[4]; Study 2, remaining female encapsulated with host tissue", "value": 1},
      {"measurement": "mean worms per gerbil", "setting": "[4]; Study 2, vehicle 32", "value": 3, "unit": "worms per gerbil"},
      {"measurement": "total worms recovered", "setting": "[4]; Study 2, vehicle 161", "value": 12},
      {"measurement": "IC50 relative to TrxR isolated from human placenta", "setting": "[5]", "value": "about 1000 fold"},
      {"measurement": "side effects", "setting": "[6]", "value": "few side effects, with the most common side effect being diarrhea"}
    ]}
  ]
}
